In the supplement of paper PMC10883282:

Key:
Test in all cases: relative viability vs DMSO control (72 h) (fraction); higher = more viable cells
A204 = test system: A204
In short: (§1)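 Serially diluted compound, 2.5 µl from source plates spanning 10 mM to 0.0002 mM, was added 24 h after sarcoma cell lines were seeded in 384-well plates at densities targeting 80–90% confluence. Plates then sat 72 h at 37 °C, 5% CO2, with 0.1% DMSO vehicle and a 5 µM positive control. Relative viability came from ATPLite as percent growth, averaged over up to triplicate wells, and was rescaled with 1 as full and 0 as none.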

G401 = test system: G401
In short: as §1

HS729 = test system: HS729
In short: as §1

KHOS-NP = test system: KHOS-NP
In short: as §1

MES-SA = test system: MES-SA
In short: as §1

RD = test system: RD
In short: as §1

SK-ES-1 = test system: SK-ES-1
In short: as §1

SK-LMS-1 = test system: SK-LMS-1
In short: as §1

SW684 = test system: SW684
In short: as §1

SW872 = test system: SW872
In short: as §1

SYO-1 = test system: SYO-1
In short: as §1

VA-ES-BJ = test system: VA-ES-BJ
In short: as §1

O=S(=O)(c1cccc2c(O)nccc12)N1CCCNCC1 [Hydroxyfasudil]
Conditions	relative viability
A204, 0.00017 µM	1.08
A204, 0.00051 µM	1.1
A204, 0.00152 µM	1.12
A204, 0.00457 µM	1.1
A204, 0.01372 µM	1.11
A204, 0.04115 µM	1.11
A204, 0.1235 µM	1.11
A204, 0.3704 µM	1.06
A204, 1.111 µM	1.04
A204, 3.333 µM	1.05
A204, 10 µM	0.979
G401, 0.00017 µM	1.02
G401, 0.00051 µM	1.05
G401, 0.00152 µM	1.03
G401, 0.00457 µM	1.05
G401, 0.01372 µM	1.052
G401, 0.04115 µM	1.05
G401, 0.1235 µM	1.03
G401, 0.3704 µM	1.03
G401, 1.111 µM	1.038
G401, 3.333 µM	1.01
G401, 10 µM	0.944
HS729, 0.00017 µM	1.087
HS729, 0.00051 µM	0.998
HS729, 0.00152 µM	1.05
HS729, 0.00457 µM	1.004
HS729, 0.01372 µM	0.967
HS729, 0.04115 µM	0.969
HS729, 0.1235 µM	0.97
HS729, 0.3704 µM	0.962
HS729, 1.111 µM	0.95
HS729, 3.333 µM	0.887
HS729, 10 µM	0.853
KHOS-NP, 0.00017 µM	1.09
KHOS-NP, 0.00051 µM	1.09
KHOS-NP, 0.00152 µM	1.086
KHOS-NP, 0.00457 µM	1.1
KHOS-NP, 0.01372 µM	1.09
KHOS-NP, 0.04115 µM	1.1
KHOS-NP, 0.1235 µM	1.08
KHOS-NP, 0.3704 µM	1.07
KHOS-NP, 1.111 µM	1.07
KHOS-NP, 3.333 µM	1.049
KHOS-NP, 10 µM	1.04
MES-SA, 0.00017 µM	0.981
MES-SA, 0.00051 µM	0.973
MES-SA, 0.00152 µM	0.93
MES-SA, 0.00457 µM	0.962
MES-SA, 0.01372 µM	0.944
MES-SA, 0.04115 µM	0.92
MES-SA, 0.1235 µM	0.96
MES-SA, 0.3704 µM	0.942
MES-SA, 1.111 µM	0.934
MES-SA, 3.333 µM	0.879
MES-SA, 10 µM	0.819
RD, 0.00017 µM	1.089
RD, 0.00051 µM	1.14
RD, 0.00152 µM	1.16
RD, 0.00457 µM	1.14
RD, 0.01372 µM	1.15
RD, 0.04115 µM	1.16
RD, 0.1235 µM	1.15
RD, 0.3704 µM	1.16
RD, 1.111 µM	1.17
RD, 3.333 µM	1.17
RD, 10 µM	1.18
SK-ES-1, 0.00017 µM	1.09
SK-ES-1, 0.00051 µM	1.09
SK-ES-1, 0.00152 µM	1.06
SK-ES-1, 0.00457 µM	1.05
SK-ES-1, 0.01372 µM	1.07
SK-ES-1, 0.04115 µM	1.1
SK-ES-1, 0.1235 µM	1.06
SK-ES-1, 0.3704 µM	1.08
SK-ES-1, 1.111 µM	1.07
SK-ES-1, 3.333 µM	1.04
SK-ES-1, 10 µM	1.02
SK-LMS-1, 0.00017 µM	1.01
SK-LMS-1, 0.00051 µM	1.06
SK-LMS-1, 0.00152 µM	1.01
SK-LMS-1, 0.00457 µM	1.06
SK-LMS-1, 0.01372 µM	1.04
SK-LMS-1, 0.04115 µM	1.06
SK-LMS-1, 0.1235 µM	0.983
SK-LMS-1, 0.3704 µM	0.99
SK-LMS-1, 1.111 µM	0.99
SK-LMS-1, 3.333 µM	0.987
SK-LMS-1, 10 µM	0.869
SW684, 0.00017 µM	1.16
SW684, 0.00051 µM	1.21
SW684, 0.00152 µM	1.2
SW684, 0.00457 µM	1.16
SW684, 0.01372 µM	1.16
SW684, 0.04115 µM	1.15
SW684, 0.1235 µM	1.14
SW684, 0.3704 µM	1.15
SW684, 1.111 µM	1.12
SW684, 3.333 µM	1.06
SW684, 10 µM	1.02
SW872, 0.00017 µM	1.12
SW872, 0.00051 µM	1.11
SW872, 0.00152 µM	1.09
SW872, 0.00457 µM	1.1
SW872, 0.01372 µM	1.07
SW872, 0.04115 µM	1.11
SW872, 0.1235 µM	1.07
SW872, 0.3704 µM	1.07
SW872, 1.111 µM	1.08
SW872, 3.333 µM	1.03
SW872, 10 µM	0.964
SYO-1, 0.00017 µM	1
SYO-1, 0.00051 µM	0.996
SYO-1, 0.00152 µM	0.97
SYO-1, 0.00457 µM	0.993
SYO-1, 0.01372 µM	0.96
SYO-1, 0.04115 µM	0.96
SYO-1, 0.1235 µM	0.983
SYO-1, 0.3704 µM	0.894
SYO-1, 1.111 µM	0.919
SYO-1, 3.333 µM	0.904
SYO-1, 10 µM	0.846
VA-ES-BJ, 0.00017 µM	1.07
VA-ES-BJ, 0.00051 µM	1.1
VA-ES-BJ, 0.00152 µM	1.11
VA-ES-BJ, 0.00457 µM	1.08
VA-ES-BJ, 0.01372 µM	1.07
VA-ES-BJ, 0.04115 µM	1.061
VA-ES-BJ, 0.1235 µM	1.06
VA-ES-BJ, 0.3704 µM	1.09
VA-ES-BJ, 1.111 µM	1.01
VA-ES-BJ, 3.333 µM	1.01
VA-ES-BJ, 10 µM	0.998
